From patent US20110166223A1, “METHODS OF INHIBITING FGFR3 SIGNALING” (CEDARS-SINAI MEDICAL CENTER, priority 2008, published 2011)
Where two headings read alike, the source gives them in different places.

How the values were obtained:
[1] = tested on: limb growth and size of cultured embryos; assay: Embryo limb culture; conditions: 30 μM; embryos cultured for six (6) days; FIG. 8
Text: FIG. 8, in accordance with an embodiment herein, depicts embryos cultured for six (6) days.

[2] = Water solubility (statement); format: physicochemical
[3] = tested on: FGF2/FGFR3-mediated growth-arrest of rat chondrosarcoma (RCS) cells; conditions: for effect on FGF2/FGFR3-mediated growth arrest (in words): FIGS. 1, 4c
Text: In this assay, the FGF2/FGFR3-mediated growth-arrest of rat chondrosarcoma (RCS) cells is used as a reporter, thus allowing for elimination of toxic compounds as false-positive hits (Krejci, et al., Invest New Drugs 2007, 25: 391-395).
Rat chondrosarcoma chondrocytes (RCS), chinese hamster ovary (CHO) cells and MM cell lines OPM2 and KMS11 were propagated in DMEM, Opti-MEM or RPMI media (Gibco, Gaitherbsburg, Md.), supplemented with 10% fetal bovine serum (Atlanta Biological, Nordeross, Ga.) and antibiotics. […] For the RCS growth-arrest experiments shown at FIGS. 1 and 4c, 1×10^4 RCS chondrocytes were seeded in 24-well tissue culture plates (Costar, Cambridge, Mass.), treated as indicated for 72 hours, and counted. FGF2 was obtained from R&D Systems (Minneapolis, Minn.); C-natriuretic peptide, suramin, NF023 and NF449 were from Calbiochem (San Diego, Calif.).

[4] = tested on: FGF2/FGFR3-mediated extracellular matrix loss in RCS chondrocytes; assay: [35S]sulfate labeling assay in RCS chondrocytes; format: cell-based, rat; conditions: FGF2 5 ng/ml, NF449 20 μM, 72 hours, FIG. 2b
Experimental: For Alcian blue staining, growing RCS cultures were treated with FGF2 (5 ng/ml) alone or in the presence of NF449 (20 μM) for 72 hours, fixed with 4% paraformaldehyde and stained for 30 minutes with Alcian blue. For quantification of the FGF2/FGFR3-mediated extracellular matrix loss, RCS chondrocytes were treated with FGF2 (5 ng/ml) and NF449 (20 μM) for 72 hours in the presence of 10 μCi/ml of [^35S]sulfate (Perkin Elmer, Boston, Mass.). Following the cultivation period, cells were harvested and the incorporated radioactivity was determined by liquid scintillation.
Apart from the growth arrest, aberrant FGFR3 signaling in chondrocytes leads to the loss of their extracellular matrix, rich in sulfated proteoglycans, due to inhibition of matrix synthesis as well as degradation of the existing matrix. The inventors therefore evaluated whether NF449 rescues the extracellular matrix loss induced by FGFR3 activation. […] Similar to previous findings, this matrix was lost after the 72-hours of FGF2 treatment. […] To further confirm this observation, cells were incubated with [^35S]sulfate for 72 hours to label the extracellular matrix and determined the effect of FGF2 and NF449 on the cell-bound radioactivity.

[5] = tested on: ERK MAP kinase phosphorylation in KMS11 and OPM2 cells; assay: FGF2-mediated ERK MAP kinase phosphorylation by western blotting in MM cell lines; format: cell-based; conditions: NF449 one hour before FGF2, FIG. 3a
Experimental: FIG. 3, in accordance with an embodiment herein, depicts 4,4′,4″,4′″-[carbonyl-bis[imino-5,1,3-benzenetriyl bis-{carbonylimino}]]tetrakis-{benzene-1,3-disulfonic acid} inhibits FGF2/FGFR3 signaling in MM cell lines OPM2 and KMS11. (a) KMS11 and OPM2 cells were serum-starved for 12 hours, treated with 4,4′,4″,4′″-[carbonyl-bis[imino-5,1,3-benzenetriyl bis-{carbonylimino}]]tetrakis-{benzene-1,3-disulfonic acid} for one hour before the treatment with FGF2 and the levels of ERK MAP kinase phosphorylation were determined by western blotting with the P-ERK1/2(Thr^202/Tyr^204) antibody. As a loading control, the membranes were reprobed with antibody recognizing ERK regardless of its phosphorylation. […] (b) The OPM2 cells were serum starved for 12 hours, pre-treated with 4,4′,4″,4′″-[carbonyl-bis[imino-5,1,3-benzenetriyl bis-{carbonylimino}]]tetrakis-{benzene-1,3-disulfonic acid} for one hour before FGF2 treatment, and analyzed for CCL3 and CCL4 expression by real-time RT-PCR as described herein. The results are expressed as the fold difference relative to control (2^ddCt). […]
Since MM represents another area of pathological FGFR3 signaling in viva, the inventors evaluated whether NF449 inhibits FGFR3 signaling in KMS11 and OPM2 MM cell lines. […]

[6] = listed as 4,4′,4″,4′″-[carbonyl-bis[imino-5,1,3-benzenetriyl bis-{carbonylimino}]]tetrakis

Question: Which results are given for O=C(Nc1cc(C(=O)Nc2ccc(S(=O)(=O)O)cc2S(=O)(=O)O)cc(C(=O)Nc2ccc(S(=O)(=O)O)cc2S(=O)(=O)O)c1)Nc1cc(C(=O)Nc2ccc(S(=O)(=O)O)cc2S(=O)(=O)O)cc(C(=O)Nc2ccc(S(=O)(=O)O)cc2S(=O)(=O)O)c1 [NF449, 4,4′,4″,4′″-[carbonyl-bis[imino-5,1,3-benzenetriylbis-{carbonylimino}]]tetrakis-{benzene-1,3-disulfonic acid}]?
Answer: limb growth and size [1]: greater limb growth and size; water solubility [2]: water-soluble; rescue (reversal) of the growth-arrest phenotype ([3]; 25 μM NF449, detailed cell-growth experiments, FIG. 1a, 72 hours): ~70%; active concentration range in the RCS growth-arrest assay ([3]; FGF2 5 ng/ml, 72 hours, FIG. 1a): 8 to 30 µM; rescue of the FGF2-mediated RCS growth-arrest ([3]; FIG. 1b, each agent alone, 72 hours): ~50%; effect on FGF2/FGFR3-mediated growth arrest (in words) ([3]; RCS chondrocytes): more potently that CNP; effect on FGF2/FGFR3-mediated growth arrest (in words) ([3]; RCS chondrocytes, listed as 4,4′,4″,4′″-[carbonyl-bis[imino-5,1,3-benzenetriyl bis-{carbonylimino}]]tetrakis): reversal of this phenotype; cell toxicity ([3]; RCS chondrocytes, throughout active concentration range (8-30 μM), listed as 4,4′,4″,4′″-[carbonyl-bis[imino-5,1,3-benzenetriyl bis-{carbonylimino}]]tetrakis): lack of significant; concentration range inhibiting RCS growth arrest ([3]; comparison with SU5402): 2 to 20 µM; FGF2-mediated inhibition of [35S]sulfate incorporation (loss of sulfated proteoglycans) [4]: completely rescued; FGF2-mediated inhibition of [35S]sulfate incorporation (loss of sulfated proteoglycans) [4, 6]: reversed; FGF2-mediated Thr202/Tyr204 phosphorylation of ERK [5]: almost completely blocked; FGF2-mediated Thr202/Tyr204 phosphorylation of ERK [5, 6]: inhibited
